# Like-named read-outs stand apart in the source and are kept apart here.
# Tests used:
# [1] = test system: Clostridium autoethanogenum culture 19630; conditions: NiCl2 1 mM, fructose 3 g/L
# Procedure: (§1) To determine the cell density in these experiments, the absorbance of the samples was measured at 600 nm (spectrophotometer) and the dry mass determined by extrapolation.
# High Performance Liquid Chromatography (HPLC) was used to characterize the level of substrates and products such as for acetate, ethanol, fructose, xylose and pyruvate. HPLC System Agilent 1100 Series. Mobile Phase: 0.0025N Sulphuric Acid. Flow and pressure: 0.800 mL/min. Column: Alltech IOA; Catalog #9648, 150×6.5 mm, particle size 5 μm. Temperature of column: 60° C. Detector: Refractive Index. Temperature of detector: 45° C.
# Method for sample preparation: 400 μL of sample+50 μL of 0.15M ZnSO4+50 μL of 0.15M Ba(OH)2 into an Eppendorf tube. Centrifuge 10 min at 12,000 rpm, 4° C. Transfer 200 μL supernatant into an HPLC vial and inject into the HPLC instrument 5 μL.
# Sterile 234 ml serum bottles were purged three times with 95% CO, 5% CO2 gas and then evacuated to a vacuum of −5 psi. The serum bottles were charged with 25 ml of LM33 media. NiCl2 solution (to final concentrations of 1 mM) and fructose (3 g/L) were added to the serum bottle which was inoculated with 1 ml of an actively growing Clostridium autoethanogenum culture 19630 from a continuous bioreactor. The headspace of the serum bottle was then filled with CO containing gas to 30 psi (composition 100% CO). The serum bottles were incubated at 37° C. and continuously agitated. Samples were taken at intervals and the headspace was purged and refreshed up to 30 psi following sampling.
# [2] = test system: Clostridium autoethanogenum culture 19630; conditions: 54 hours
# Procedure: as §1
# Each well was inoculated with 50 μL of an actively growing Clostridium autoethanogenum culture 19630 from a continuous bioreactor. The wells were then mixed thoroughly and 200 ul from each well was added to a 96 well tissue culture plate. The plate was then sealed with a gas permeable sealing film and placed into an anaerobic pressure vessel. This vessel was pressurized to 30 psi with 100% CO gas and placed on an orbital shaker (150 rpm) in an incubated chamber at 37° C. Samples were analyzed at 54 hours after incubation.
# [3] = test system: Clostridium carboxidivorans DSM15243;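 also: growth tracked as optical density at 600 nm, while ethanol and acetate were quantified in culture samples by HPLC with a refractive index detector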
# Text: Growth was monitored by measuring the optical density at 600 nm (OD600nm) and metabolites were detected by HPLC.
smiles,measurement,setting,value
"[Cl][Ni][Cl] [Nickel, nickel chloride]",Acetic Acid,[1]; 12 h after inoculation,0.42 g/L
same,Cell density,[1]; 12 h after inoculation,0.16 g/L
same,Ethanol,[1]; 12 h after inoculation,0.25 g/L
same,Fructose,[1]; 12 h after inoculation,2.87 g/L
same,Acetic Acid,[1]; 18 h after inoculation,0.48 g/L
same,Cell density,[1]; 18 h after inoculation,0.20 g/L
same,Ethanol,[1]; 18 h after inoculation,0.61 g/L
same,Fructose,[1]; 18 h after inoculation,2.4 g/L
same,Acetic Acid,[1]; 30 h after inoculation,0.45 g/L
same,Cell density,[1]; 30 h after inoculation,0.73 g/L
same,Ethanol,[1]; 30 h after inoculation,4.19 g/L
same,Fructose,[1]; 30 h after inoculation,0 g/L
same,Acetic Acid,[1]; 80 h after inoculation,0.38 g/L
same,Cell density,[1]; 80 h after inoculation,0.98 g/L
same,Ethanol,[1]; 80 h after inoculation,7.60 g/L
same,Fructose,[1]; 80 h after inoculation,0 g/L
same,Acetic Acid,[1]; 96 h after inoculation,0.31 g/L
same,Cell density,[1]; 96 h after inoculation,1.07 g/L
same,Ethanol,[1]; 96 h after inoculation,7.81 g/L
same,Fructose,[1]; 96 h after inoculation,0 g/L
same,Cell density,[2]; Additional Nickel 100 μM,0.23 g/L
same,Cell density,[2]; Additional Nickel 200 μM,0.25 g/L
same,Cell density,[2]; Additional Nickel 300 μM,0.28 g/L
same,Cell density,[2]; Additional Nickel 400 μM,0.30 g/L
same,Cell density,[2]; Additional Nickel 500 μM,0.35 g/L
same,Cell density,[2]; Additional Nickel 600 μM,0.31 g/L
same,Cell density,[2]; Additional Nickel 700 μM,0.37 g/L
same,Cell density,[2]; Additional Nickel 800 μM,0.45 g/L
same,Cell density,[2]; Additional Nickel 900 μM,0.43 g/L
same,Cell density,[2]; Additional Nickel 1000 μM,0.39 g/L
same,Ethanol,"[3]; Nickel 200 μM, 0 h",0.18 ± 0.01 g/L
same,OD600 nm,"[3]; Nickel 200 μM, 0 h",0.010 ± 0.001
same,Acetate,"[3]; Nickel 200 μM, 30 h",0.37 ± 0.13 g/L
same,Ethanol,"[3]; Nickel 200 μM, 30 h",0.18 ± 0.01 g/L
same,OD600 nm,"[3]; Nickel 200 μM, 30 h",0.185 ± 0.052
same,Acetate,"[3]; Nickel 200 μM, 54 h",0.38 ± 0.02 g/L
same,Ethanol,"[3]; Nickel 200 μM, 54 h",0.33 ± 0.02 g/L
same,OD600 nm,"[3]; Nickel 200 μM, 54 h",0.239 ± 0.028
same,Acetate,"[3]; Nickel 200 μM, 102 h",0.43 ± 0.09 g/L
same,Ethanol,"[3]; Nickel 200 μM, 102 h",0.33 ± 0.19 g/L
same,OD600 nm,"[3]; Nickel 200 μM, 102 h",0.274 ± 0.025
same,Acetate,"[3]; Nickel 200 μM, 127 h",0.61 ± 0.02 g/L
same,Ethanol,"[3]; Nickel 200 μM, 127 h",6.69 ± 0.08 g/L
same,OD600 nm,"[3]; Nickel 200 μM, 127 h",0.285 ± 0.046
same,Ethanol,"[3]; Nickel 400 μM, 0 h",0.18 ± 0.06 g/L
same,OD600 nm,"[3]; Nickel 400 μM, 0 h",0.011 ± 0.002
same,Acetate,"[3]; Nickel 400 μM, 30 h",0.35 ± 0.02 g/L
same,Ethanol,"[3]; Nickel 400 μM, 30 h",0.33 ± 0.11 g/L
same,OD600 nm,"[3]; Nickel 400 μM, 30 h",0.271 ± 0.001
same,Acetate,"[3]; Nickel 400 μM, 54 h",0.41 ± 0.02 g/L
same,Ethanol,"[3]; Nickel 400 μM, 54 h",0.75 ± 0.01 g/L
same,OD600 nm,"[3]; Nickel 400 μM, 54 h",0.310 ± 0.037
same,Acetate,"[3]; Nickel 400 μM, 102 h",0.37 ± 0.19 g/L
same,Ethanol,"[3]; Nickel 400 μM, 102 h",0.86 ± 0.03 g/L
same,OD600 nm,"[3]; Nickel 400 μM, 102 h",0.304 ± 0.035
same,Acetate,"[3]; Nickel 400 μM, 127 h",0.47 ± 0.03 g/L
same,Ethanol,"[3]; Nickel 400 μM, 127 h",0.89 ± 0.08 g/L
same,OD600 nm,"[3]; Nickel 400 μM, 127 h",0.291 ± 0.026
same,Ethanol,"[3]; Nickel 700 μM, 0 h",0.20 ± 0.01 g/L
same,OD600 nm,"[3]; Nickel 700 μM, 0 h",0.010 ± 0.001
same,Acetate,"[3]; Nickel 700 μM, 30 h",0.34 ± 0.01 g/L
same,Ethanol,"[3]; Nickel 700 μM, 30 h",0.27 ± 0.01 g/L
same,OD600 nm,"[3]; Nickel 700 μM, 30 h",0.402 ± 0.014
same,Acetate,"[3]; Nickel 700 μM, 54 h",0.40 ± 0.05 g/L
same,Ethanol,"[3]; Nickel 700 μM, 54 h",0.84 ± 0.03 g/L
same,OD600 nm,"[3]; Nickel 700 μM, 54 h",0.689 ± 0.097
same,Acetate,"[3]; Nickel 700 μM, 102 h",0.65 ± 0.06 g/L
same,Ethanol,"[3]; Nickel 700 μM, 102 h",0.86 ± 0.25 g/L
same,OD600 nm,"[3]; Nickel 700 μM, 102 h",0.519 ± 0.078
same,Acetate,"[3]; Nickel 700 μM, 127 h",0.63 ± 0.32 g/L
same,Ethanol,"[3]; Nickel 700 μM, 127 h",1.01 ± 0.17 g/L
same,OD600 nm,"[3]; Nickel 700 μM, 127 h",0.584 ± 0.088
same,Ethanol,"[3]; Nickel 1000 μM, 0 h",0.18 ± 0.01 g/L
same,OD600 nm,"[3]; Nickel 1000 μM, 0 h",0.009 ± 0.001
same,Acetate,"[3]; Nickel 1000 μM, 30 h",0.29 ± 0.04 g/L
same,Ethanol,"[3]; Nickel 1000 μM, 30 h",0.44 ± 0.09 g/L
same,OD600 nm,"[3]; Nickel 1000 μM, 30 h",0.705 ± 0.014
same,Acetate,"[3]; Nickel 1000 μM, 54 h",0.39 ± 0.02 g/L
same,Ethanol,"[3]; Nickel 1000 μM, 54 h",0.74 ± 0.05 g/L
same,OD600 nm,"[3]; Nickel 1000 μM, 54 h",1.058 ± 0.006
same,Acetate,"[3]; Nickel 1000 μM, 102 h",0.62 ± 0.21 g/L
same,Ethanol,"[3]; Nickel 1000 μM, 102 h",0.88 ± 0.03 g/L
same,OD600 nm,"[3]; Nickel 1000 μM, 102 h",0.943 ± 0.002
same,Acetate,"[3]; Nickel 1000 μM, 127 h",0.47 ± 0.11 g/L
same,Ethanol,"[3]; Nickel 1000 μM, 127 h",1.04 ± 0.02 g/L
same,OD600 nm,"[3]; Nickel 1000 μM, 127 h",0.981 ± 0.088

# Source: patent publication US8354269B2 (priority 2008, dated 2013)
